This note sets out measurements from paper doi:10.1101/2021.06.01.446583v1 (biorxiv, 2021).

Assay [1] deals with Fp231. In words: fucose release by HPAEC-PAD, Michaelis-Menten non-linear fit. In kind it is biochemical, uncultured Paraglaciecola sp. Particulars: 0.1-4 mM substrate, 2 nM enzyme.
In assay [2] the test system is Fp231. Nature of the assay: CNP release at […] nm, Michaelis-Menten non-linear fit. In kind it is biochemical, uncultured Paraglaciecola sp. Particulars: 0.1-4 mM substrate, 2 nM enzyme.

Structures are written as SMILES.

In general, Km refers to the concentration of substrate that gives half-maximal velocity. With `CC(=O)N[C@H]1C(O)O[C@H](CO)[C@@H](O[C@@H]2O[C@@H](C)[C@@H](O)[C@@H](O)[C@@H]2O)[C@@H]1O` (stereo partly drawn) [Fuc(α1,4)GlcNAc], the Km in the assay on Fp231 [1] worked out at 660 ± 50 µM.

In the case of `C[C@@H]1O[C@@H](Oc2ccc([N+](=O)[O-])cc2Cl)[C@@H](O)[C@H](O)[C@@H]1O` [CNP-Fuc, 2-chloro-4-nitrophenyl-α-L-fucopyranoside], the Km in the assay with Fp231 [2] worked out at 140 ± 10 µM.
